Experiment [1] has as its system EFT-200 three-dimensional human skin model. In words: Collagen fibril diameter in EFT-200 three-dimensional human skin model (transmission electron microscopy). The experiment is classed as cell-based. The settings on record: for average of the diameters of the collagen fibrils observed: peptide 0.1 mg/mL in culture medium, changed daily for 14 days, untreated tissue 6.825 nm; for reduction of the diameter of the collagen fibers: peptide 0.1 mg/mL, 14 days, versus untreated tissue. On the procedure:
Starting from an EFT-200 three-dimensional human skin model (MatTek Corporation), the tissues were treated with H-Lys-Asp-Ile-Cit-NH2 and with H-Lys-Asp-Val-Cit-NH2 at a concentration of 0.1 mg/mL in culture medium. The latter was changed daily for 14 days, adding peptide at the same concentration in each change. On day 14, the tissues were fixed with a solution of 2% paraformaldehyde and 2.5% glutaraldehyde in 0.1M phosphate buffer, pH 7.4, for at least 2 hours at 4° C. The post-fixing was then carried out with 1% osmium tetroxide containing 0.8% potassium ferricyanide for 1 hour at 4° C. The tissues were then dehydrated in alcohols and were slowly included in epoxy resin (Spurr). The samples were cut and oriented correctly in the block, allowing them to polymerize for 48 hours at 60° C.

In the next experiment the test system is fibrillogenesis. The experiment is described as follows: Regulation of fibrillogenesis by synthetic peptides. The settings on record: peptides complying with the [+,-,0,+] charge pattern; no method given.

Results on 6 substances are retold here after patent US9393186B2, “Synthetic peptides useful in the treatment of the skin and use thereof in cosmetic or dermopharmaceutical compositions” (Lipotec, S.A., priority 2006, dated 2016).

Square brackets hold non-standard residues; d marks the D form. Ends that are not written are not given here. Cit = NC(=O)NCCC[C@H](N)C(=O)O; Orn = NCCC[C@H](N)C(=O)O; Nva = CCC[C@H](N)C(=O)O

Consider H-KDI[Cit]-NH2, for which, in experiment [1], the “average of the diameters of the collagen fibrils observed” value amounted to 5.791 nm and the “reduction of the diameter of the collagen fibers” value came out at 15.1%.
H-KDV[Cit]-NH2: in experiment [1], the “average of the diameters of the collagen fibrils observed” value is on record as 5.774 nm and the “reduction of the diameter of the collagen fibers” value was found to be 15.5%.
In the case of “His-Asp-Ala-Arg (HDAR; printed: His-Asp-Ala-Arg) [comparison peptide complying with the [+,-,0,+] charge pattern]”, in the experiment on fibrillogenesis, the effect on fibrillogenesis result is “no effect on fibrillogenesis”.
As for “His-Asp-Ile-His (HDIH; printed: His-Asp-Ile-His) [comparison peptide complying with the [+,-,0,+] charge pattern]”, in the experiment on fibrillogenesis, the effect on fibrillogenesis result is “no effect on fibrillogenesis”.
Still for that read-out and setting: under RELH stands “capable of regulating fibrillogenesis”.
With [Orn]D[Nva]H, in the experiment with fibrillogenesis, the effect on fibrillogenesis result was “no effect on fibrillogenesis”.
